Assay results taken from ChEMBL document CHEMBL4507301 (2021).

Key:
[1] = molecular target: MAP/microtubule affinity-regulating kinase 4 (Homo sapiens) (UniProt Q96L34); settings: Compound concentration 1000.0 nM
[2] = molecular target: Receptor tyrosine-protein kinase erbB-2 (Homo sapiens) (UniProt P04626); settings: Compound concentration 1000.0 nM
[3] = molecular target: Angiopoietin-1 receptor (Homo sapiens) (UniProt Q02763); settings: Compound concentration 1000.0 nM
[4] = molecular target: Serine/threonine-protein kinase D1 (Homo sapiens) (UniProt Q15139); settings: Compound concentration 1000.0 nM
[5] = molecular target: Tyrosine-protein kinase Lyn (Homo sapiens) (UniProt P07948); settings: Compound concentration 1000.0 nM
[6] = molecular target: Ribosomal protein S6 kinase alpha-6 (Homo sapiens) (UniProt Q9UK32); settings: Compound concentration 1000.0 nM
[7] = molecular target: Mitogen-activated protein kinase 14 (Homo sapiens) (UniProt Q16539); settings: Compound concentration 1000.0 nM
[8] = molecular target: Calcium-dependent protein kinase 1 (Plasmodium falciparum) (UniProt P62344); settings: Compound concentration 1000.0 nM
[9] = molecular target: cAMP-dependent protein kinase catalytic subunit alpha (Homo sapiens) (UniProt P17612); settings: Compound concentration 1000.0 nM
[10] = molecular target: Mitogen-activated protein kinase 1 (Homo sapiens) (UniProt P28482); settings: Compound concentration 1000.0 nM
[11] = molecular target: Macrophage-stimulating protein receptor (Homo sapiens) (UniProt Q04912); settings: Compound concentration 1000.0 nM
[12] = molecular target: RAC-gamma serine/threonine-protein kinase (Homo sapiens) (UniProt Q9Y243); settings: Compound concentration 1000.0 nM
[13] = molecular target: Myosin light chain kinase family member 4 (Homo sapiens) (UniProt Q86YV6); settings: Compound concentration 1000.0 nM
[14] = molecular target: Insulin-like growth factor 1 receptor (Homo sapiens) (UniProt P08069); settings: Compound concentration 1000.0 nM
Sequence of Insulin-like growth factor 1 receptor (Homo sapiens) (P08069 31-736 limits assumed): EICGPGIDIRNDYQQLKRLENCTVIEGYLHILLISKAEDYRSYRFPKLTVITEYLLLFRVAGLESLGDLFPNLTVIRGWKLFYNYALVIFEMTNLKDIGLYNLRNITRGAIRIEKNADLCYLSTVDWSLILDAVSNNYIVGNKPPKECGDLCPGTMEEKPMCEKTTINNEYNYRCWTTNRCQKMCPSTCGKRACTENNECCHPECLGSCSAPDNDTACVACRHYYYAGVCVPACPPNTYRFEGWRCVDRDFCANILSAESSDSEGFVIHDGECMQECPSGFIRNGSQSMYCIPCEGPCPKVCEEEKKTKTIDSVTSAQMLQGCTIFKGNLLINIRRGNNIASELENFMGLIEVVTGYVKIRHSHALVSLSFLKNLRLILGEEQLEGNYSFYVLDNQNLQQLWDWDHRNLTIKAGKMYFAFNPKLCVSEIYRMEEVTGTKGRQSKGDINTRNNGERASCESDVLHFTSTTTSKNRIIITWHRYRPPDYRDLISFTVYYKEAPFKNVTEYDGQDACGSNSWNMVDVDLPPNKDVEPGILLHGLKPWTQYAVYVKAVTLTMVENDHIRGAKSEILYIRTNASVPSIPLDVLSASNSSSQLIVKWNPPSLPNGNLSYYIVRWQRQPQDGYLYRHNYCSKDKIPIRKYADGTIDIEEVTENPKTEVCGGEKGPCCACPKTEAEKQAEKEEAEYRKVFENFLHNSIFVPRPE
Sequence of Insulin-like growth factor 1 receptor (Homo sapiens) (P08069 741-1367 limits assumed): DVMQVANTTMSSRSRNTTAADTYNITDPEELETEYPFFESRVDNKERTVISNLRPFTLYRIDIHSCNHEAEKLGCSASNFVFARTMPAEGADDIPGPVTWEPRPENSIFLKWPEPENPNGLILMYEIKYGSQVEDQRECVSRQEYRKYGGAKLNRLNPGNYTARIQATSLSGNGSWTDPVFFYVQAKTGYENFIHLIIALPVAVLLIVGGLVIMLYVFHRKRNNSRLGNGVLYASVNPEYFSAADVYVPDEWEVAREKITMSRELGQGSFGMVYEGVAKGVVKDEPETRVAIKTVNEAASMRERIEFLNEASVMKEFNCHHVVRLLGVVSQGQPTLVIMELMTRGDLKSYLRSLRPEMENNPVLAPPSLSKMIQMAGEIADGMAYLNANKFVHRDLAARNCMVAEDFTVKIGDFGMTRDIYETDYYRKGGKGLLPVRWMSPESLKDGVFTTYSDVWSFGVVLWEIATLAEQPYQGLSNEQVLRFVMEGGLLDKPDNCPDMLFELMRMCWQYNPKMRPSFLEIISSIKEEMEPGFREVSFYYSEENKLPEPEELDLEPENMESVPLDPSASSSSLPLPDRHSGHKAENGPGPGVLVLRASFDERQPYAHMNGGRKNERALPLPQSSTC

[15] = molecular target: Leucine-rich repeat serine/threonine-protein kinase 2 (Homo sapiens) (UniProt Q5S007); settings: Compound concentration 1000.0 nM
[16] = molecular target: Mitogen-activated protein kinase 7 (Homo sapiens) (UniProt Q13164); settings: Compound concentration 1000.0 nM
[17] = molecular target: Serine/threonine-protein kinase ULK2 (Homo sapiens) (UniProt Q8IYT8); settings: Compound concentration 1000.0 nM
[18] = molecular target: MAP kinase-interacting serine/threonine-protein kinase 2 (Homo sapiens) (UniProt Q9HBH9); settings: Compound concentration 1000.0 nM
[19] = tested on: Proto-oncogene tyrosine-protein kinase receptor Ret (Homo sapiens), P07949 [V804L]; settings: Compound concentration 1000.0 nM
[20] = tested on: Tyrosine-protein kinase ABL1 (Homo sapiens), P00519 [F317L]; settings: Compound concentration 1000.0 nM
[21] = molecular target: Tyrosine-protein kinase ABL1 (Homo sapiens) (UniProt P00519); settings: Compound concentration 1000.0 nM
[22] = molecular target: Epidermal growth factor receptor (Homo sapiens) (UniProt P00533); settings: Compound concentration 1000.0 nM
[23] = tested on: Receptor-type tyrosine-protein kinase FLT3 (Homo sapiens), P36888 [UNDEFINED MUTATION]; settings: Compound concentration 1000.0 nM
[24] = molecular target: Mitogen-activated protein kinase 8 (Homo sapiens) (UniProt P45983); settings: Compound concentration 1000.0 nM
[25] = molecular target: Dual specificity mitogen-activated protein kinase kinase 7 (Homo sapiens) (UniProt O14733); settings: Compound concentration 1000.0 nM
[26] = molecular target: Sigma non-opioid intracellular receptor 1 (Homo sapiens) (UniProt Q99720); settings: Compound concentration 10.0 uM
[27] = molecular target: Inhibitor of nuclear factor kappa-B kinase subunit beta (Homo sapiens) (UniProt O14920); settings: Compound concentration 1000.0 nM
[28] = molecular target: Membrane-associated tyrosine- and threonine-specific cdc2-inhibitory kinase (Homo sapiens) (UniProt Q99640); settings: Compound concentration 1000.0 nM
[29] = molecular target: Receptor-type tyrosine-protein kinase FLT3 (Homo sapiens) (UniProt P36888); settings: Compound concentration 1000.0 nM
[30] = molecular target: Rho-associated protein kinase 1 (Homo sapiens) (UniProt Q13464); settings: Compound concentration 1000.0 nM
Sequence of Rho-associated protein kinase 1 (Homo sapiens) (Q13464 2-1354 limits assumed): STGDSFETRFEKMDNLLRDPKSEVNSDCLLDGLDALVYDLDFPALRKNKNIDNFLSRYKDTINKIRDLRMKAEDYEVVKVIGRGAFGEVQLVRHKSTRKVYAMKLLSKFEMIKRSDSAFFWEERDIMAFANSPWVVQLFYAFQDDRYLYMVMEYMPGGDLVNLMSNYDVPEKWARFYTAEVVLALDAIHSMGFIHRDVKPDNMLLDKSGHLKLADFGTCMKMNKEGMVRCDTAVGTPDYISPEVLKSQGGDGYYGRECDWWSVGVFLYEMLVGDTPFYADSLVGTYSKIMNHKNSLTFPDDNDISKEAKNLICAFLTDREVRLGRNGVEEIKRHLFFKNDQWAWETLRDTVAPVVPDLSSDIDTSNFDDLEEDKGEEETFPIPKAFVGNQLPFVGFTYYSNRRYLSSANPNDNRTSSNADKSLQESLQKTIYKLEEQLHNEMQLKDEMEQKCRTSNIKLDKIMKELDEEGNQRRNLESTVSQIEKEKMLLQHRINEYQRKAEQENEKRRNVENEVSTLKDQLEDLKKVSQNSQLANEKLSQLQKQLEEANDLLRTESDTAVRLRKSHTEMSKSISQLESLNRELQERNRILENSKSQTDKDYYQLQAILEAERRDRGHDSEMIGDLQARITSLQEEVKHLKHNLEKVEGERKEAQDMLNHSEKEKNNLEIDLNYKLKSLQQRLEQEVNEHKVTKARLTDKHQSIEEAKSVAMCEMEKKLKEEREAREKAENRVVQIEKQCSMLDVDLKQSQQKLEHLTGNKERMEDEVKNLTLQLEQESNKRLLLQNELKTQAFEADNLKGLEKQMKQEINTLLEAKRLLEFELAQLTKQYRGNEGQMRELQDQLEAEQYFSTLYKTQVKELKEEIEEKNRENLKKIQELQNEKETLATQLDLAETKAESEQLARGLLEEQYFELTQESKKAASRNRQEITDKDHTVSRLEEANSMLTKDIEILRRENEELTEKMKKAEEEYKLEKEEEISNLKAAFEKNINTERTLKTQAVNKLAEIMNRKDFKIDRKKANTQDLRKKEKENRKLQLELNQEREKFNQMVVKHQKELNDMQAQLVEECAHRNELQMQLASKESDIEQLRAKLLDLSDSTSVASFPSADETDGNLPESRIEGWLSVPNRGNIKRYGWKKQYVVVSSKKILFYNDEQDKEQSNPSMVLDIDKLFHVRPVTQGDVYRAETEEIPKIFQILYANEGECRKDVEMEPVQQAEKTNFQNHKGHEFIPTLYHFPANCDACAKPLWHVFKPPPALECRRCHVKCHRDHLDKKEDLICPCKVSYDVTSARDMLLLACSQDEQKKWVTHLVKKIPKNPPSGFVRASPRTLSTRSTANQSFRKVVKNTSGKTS

[31] = tested on: Mast/stem cell growth factor receptor Kit (Homo sapiens), P10721 [D816H]; settings: Compound concentration 1000.0 nM
[32] = tested on: Epidermal growth factor receptor (Homo sapiens), P00533 [L861Q]; settings: Compound concentration 1000.0 nM
[33] = molecular target: Tyrosine-protein kinase receptor TYRO3 (Homo sapiens) (UniProt Q06418); settings: Compound concentration 1000.0 nM
[34] = molecular target: Cyclin-dependent kinase 11B (Homo sapiens) (UniProt P21127); settings: Compound concentration 1000.0 nM
Sequence of Cyclin-dependent kinase 11B (Homo sapiens) (P21127 whole entry): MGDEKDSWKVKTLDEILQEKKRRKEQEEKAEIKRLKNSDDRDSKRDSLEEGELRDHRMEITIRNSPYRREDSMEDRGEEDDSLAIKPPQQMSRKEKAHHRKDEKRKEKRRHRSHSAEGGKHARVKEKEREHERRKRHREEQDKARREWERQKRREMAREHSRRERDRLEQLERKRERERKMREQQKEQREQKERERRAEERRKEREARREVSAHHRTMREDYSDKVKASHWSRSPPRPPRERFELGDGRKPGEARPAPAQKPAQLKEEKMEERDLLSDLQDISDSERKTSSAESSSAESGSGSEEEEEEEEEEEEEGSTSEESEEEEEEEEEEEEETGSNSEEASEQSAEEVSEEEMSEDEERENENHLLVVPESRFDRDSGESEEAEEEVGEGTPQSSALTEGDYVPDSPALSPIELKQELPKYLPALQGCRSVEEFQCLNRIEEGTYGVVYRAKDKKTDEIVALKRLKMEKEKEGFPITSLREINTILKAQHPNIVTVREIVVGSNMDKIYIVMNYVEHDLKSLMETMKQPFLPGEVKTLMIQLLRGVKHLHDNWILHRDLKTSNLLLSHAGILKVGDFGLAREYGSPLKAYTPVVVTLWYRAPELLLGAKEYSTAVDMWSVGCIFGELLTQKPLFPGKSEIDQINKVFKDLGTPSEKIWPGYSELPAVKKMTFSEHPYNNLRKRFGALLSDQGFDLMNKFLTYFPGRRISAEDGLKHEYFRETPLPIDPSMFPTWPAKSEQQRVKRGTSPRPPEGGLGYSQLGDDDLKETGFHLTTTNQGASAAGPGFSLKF

[35] = molecular target: Serine/threonine-protein kinase 17B (Homo sapiens) (UniProt O94768); settings: Compound concentration 1000.0 nM
[36] = molecular target: Mitogen-activated protein kinase kinase kinase 3 (Homo sapiens) (UniProt Q99759); settings: Compound concentration 1000.0 nM
[37] = molecular target: BMP-2-inducible protein kinase (Homo sapiens) (UniProt Q9NSY1); settings: Compound concentration 1000.0 nM
[38] = molecular target: D(3) dopamine receptor (Homo sapiens) (UniProt P35462); settings: Compound concentration 10.0 uM
[39] = tested on: Phosphatidylinositol 4,5-bisphosphate 3-kinase catalytic subunit alpha isoform (Homo sapiens), P42336 [M1043I]; settings: Compound concentration 1000.0 nM
[40] = molecular target: Tyrosine-protein kinase receptor UFO (Homo sapiens) (UniProt P30530); settings: Compound concentration 1000.0 nM
Sequence of Tyrosine-protein kinase receptor UFO (Homo sapiens) (P30530 whole entry, the tested form may be a part): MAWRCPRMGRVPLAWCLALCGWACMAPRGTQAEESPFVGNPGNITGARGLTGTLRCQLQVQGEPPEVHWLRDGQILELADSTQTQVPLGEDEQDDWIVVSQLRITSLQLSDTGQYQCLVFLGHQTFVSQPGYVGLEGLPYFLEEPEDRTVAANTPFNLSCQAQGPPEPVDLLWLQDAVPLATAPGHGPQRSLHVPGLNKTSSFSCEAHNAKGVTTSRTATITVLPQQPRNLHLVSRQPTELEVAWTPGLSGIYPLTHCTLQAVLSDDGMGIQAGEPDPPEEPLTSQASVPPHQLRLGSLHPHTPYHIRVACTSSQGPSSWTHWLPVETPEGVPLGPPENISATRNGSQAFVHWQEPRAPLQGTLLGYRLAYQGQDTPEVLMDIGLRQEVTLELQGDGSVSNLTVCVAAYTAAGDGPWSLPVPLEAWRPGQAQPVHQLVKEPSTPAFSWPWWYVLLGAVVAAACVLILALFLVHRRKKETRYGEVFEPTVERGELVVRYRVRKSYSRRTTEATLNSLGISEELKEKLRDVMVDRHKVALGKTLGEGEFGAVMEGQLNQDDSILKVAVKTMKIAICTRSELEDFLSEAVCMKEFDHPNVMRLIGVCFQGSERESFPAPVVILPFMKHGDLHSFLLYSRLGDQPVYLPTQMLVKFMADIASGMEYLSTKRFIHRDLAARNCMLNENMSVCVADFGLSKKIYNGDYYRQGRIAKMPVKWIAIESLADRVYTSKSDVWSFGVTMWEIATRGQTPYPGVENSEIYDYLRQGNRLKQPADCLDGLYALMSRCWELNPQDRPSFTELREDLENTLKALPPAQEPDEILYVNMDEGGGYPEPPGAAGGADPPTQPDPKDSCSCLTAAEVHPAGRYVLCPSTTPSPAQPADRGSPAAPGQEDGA

[41] = molecular target: LIM domain kinase 2 (Homo sapiens) (UniProt P53671); settings: Compound concentration 1000.0 nM
Sequence of LIM domain kinase 2 (Homo sapiens) (P53671 whole entry, looked up, the tested form may be a part): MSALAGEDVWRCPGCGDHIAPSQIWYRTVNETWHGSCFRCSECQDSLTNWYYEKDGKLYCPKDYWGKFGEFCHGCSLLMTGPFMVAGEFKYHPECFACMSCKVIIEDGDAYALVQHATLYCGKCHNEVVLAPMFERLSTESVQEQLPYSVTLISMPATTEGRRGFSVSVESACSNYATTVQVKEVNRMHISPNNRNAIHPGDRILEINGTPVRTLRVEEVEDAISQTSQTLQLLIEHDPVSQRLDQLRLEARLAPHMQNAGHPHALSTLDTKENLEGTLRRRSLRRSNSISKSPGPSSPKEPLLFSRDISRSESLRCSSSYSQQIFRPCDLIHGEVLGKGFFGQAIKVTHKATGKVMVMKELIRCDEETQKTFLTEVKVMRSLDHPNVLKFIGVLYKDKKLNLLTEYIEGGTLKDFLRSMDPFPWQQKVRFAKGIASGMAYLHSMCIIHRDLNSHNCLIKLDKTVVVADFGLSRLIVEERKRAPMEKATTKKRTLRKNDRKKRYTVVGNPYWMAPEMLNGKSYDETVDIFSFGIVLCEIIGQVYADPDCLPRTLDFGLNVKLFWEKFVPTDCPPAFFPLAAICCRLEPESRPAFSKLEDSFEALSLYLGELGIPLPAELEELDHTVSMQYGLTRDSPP

[42] = molecular target: Cyclin-dependent kinase 16 (Homo sapiens) (UniProt Q00536); settings: Compound concentration 1000.0 nM
[43] = molecular target: Serine/threonine-protein kinase LATS2 (Homo sapiens) (UniProt Q9NRM7); settings: Compound concentration 1000.0 nM
[44] = molecular target: Serine/threonine-protein kinase D3 (Homo sapiens) (UniProt O94806); settings: Compound concentration 1000.0 nM
[45] = molecular target: Myosin light chain kinase (Homo sapiens) (UniProt Q32MK0); settings: Compound concentration 1000.0 nM

Compound: C[C@@H](c1cccc(C#N)c1)n1cc(Cl)cc(C(N)=O)c1=N [(S)-9s]
- residual activity [1]: 100%
- residual activity [2]: 96%
- residual activity [3]: 90%
- residual activity [4]: 90%
- residual activity [5]: 80%
- residual activity [6]: 82%
- residual activity [7]: 100%
- residual activity [8]: 78%
- residual activity [9]: 100%
- residual activity [10]: 82%
- residual activity [11]: 100%
- residual activity [12]: 100%
- residual activity [13]: 100%
- residual activity [14]: 96%
- residual activity [15]: 100%
- residual activity [16]: 88%
- residual activity [17]: 89%
- residual activity [18]: 100%
- residual activity [19]: 86%
- residual activity [20]: 85%
- residual activity [21]: 73%
- residual activity [22]: 100%
- residual activity [23]: 98%
- residual activity [24]: 75%
- residual activity [25]: 99%
- inhibition [26]: 17.4%
- residual activity [27]: 100%
- residual activity [28]: 100%
- residual activity [29]: 92%
- residual activity [30]: 71%
- residual activity [31]: 100%
- residual activity [32]: 100%
- residual activity [33]: 68%
- residual activity [34]: 86%
- residual activity [35]: 72%
- residual activity [36]: 95%
- residual activity [37]: 93%
- inhibition [38]: -3.38%
- residual activity [39]: 100%
- residual activity [40]: 100%
- residual activity [41]: 100%
- residual activity [42]: 96%
- residual activity [43]: 80%
- residual activity [44]: 100%
- residual activity [45]: 98%

Compound: C[C@H](c1cccc(C#N)c1)n1cc(Cl)cc(C(N)=O)c1=N [(R)-9s]
- residual activity [1]: 99%
- residual activity [2]: 100%
- residual activity [3]: 96%
- residual activity [4]: 100%
- residual activity [5]: 81%
- residual activity [6]: 91%
- residual activity [7]: 100%
- residual activity [8]: 86%
- residual activity [9]: 100%
- residual activity [10]: 93%
- residual activity [11]: 100%
- residual activity [12]: 100%
- residual activity [13]: 100%
- residual activity [14]: 100%
- residual activity [15]: 100%
- residual activity [16]: 88%
- residual activity [17]: 71%
- residual activity [18]: 100%
- residual activity [19]: 87%
- residual activity [20]: 75%
- residual activity [21]: 77%
- residual activity [22]: 100%
- residual activity [23]: 100%
- residual activity [24]: 72%
- residual activity [25]: 72%
- inhibition [26]: 17.7%
- residual activity [27]: 100%
- residual activity [28]: 100%
- residual activity [29]: 90%
- residual activity [30]: 71%
- residual activity [31]: 79%
- residual activity [32]: 100%
- residual activity [33]: 33%
- residual activity [34]: 86%
- residual activity [35]: 73%
- residual activity [36]: 91%
- residual activity [37]: 100%
- inhibition [38]: 7.03%
- residual activity [39]: 100%
- residual activity [40]: 100%
- residual activity [41]: 100%
- residual activity [42]: 83%
- residual activity [43]: 84%
- residual activity [44]: 65%
- residual activity [45]: 94%
